Key:
PEPCK expression = experiment: Larval diabetic zebrafish assay, Western blot of PEPCK; type: in vivo; conditions: duplicate Western blot (FIG. 10), diabetic zebrafish larvae, 10 μM
Description: (§1) Following isolation, derivatization, and analysis of compounds 41-48 through the in vitro panel of assays, the mace natural products and licarin A derivatives were investigated in the larval diabetic zebrafish assay for potential antidiabetic activity. Western blot analysis of zebrafish expression levels for glycated hemoglobin, metabolic enzymes, and molecular targets NFκB and PPAR-γ was performed to evaluate potential lead improvement and to discover possible mechanisms of action.
Wild-type zebrafish were sorted into 24-well microplates with 10 fish per well for a four-phase treatment cycle. At 72 hpf, type 2 diabetes was induced by administering 0.5 mg/mL alloxan in fish water for percutaneous absorption. After three hours of alloxan treatment, phase two of the treatment cycle was initiated by administering 10 μM doses of natural product compounds 41-43 (FIG. 4) or derivatives 45-48 (FIG. 6) with 0.01% DMSO in system water. At 78 hpf, the incubation solution was changed to 10 mg/ml D-glucose for 30 minutes, followed by a phase-four rinse in fresh system w Following the four-phase treatment cycle, zebrafish treatment groups were snap frozen in microcentrifuge tubes on dry ice, stored overnight at −80° C., thawed, and homogenized with 2 μL PBS per animal. Following centrifugation (60 minutes at 4° C. and 17,000 rpm), protein content of the homogenate supernatant was determined using the Pierce BCA Protein Assay kit (Pierce Biotechnology). Homogenates were analyzed by Western blot with equal amounts of total protein (20 μg) in each sample and using 4×LDS loading buffer (NuPAGE Life Technologies). The immunoblot samples were heated at 95° C. for 5 minutes and loaded onto NuPAGE Bis-Tris 4-12% gradient SDS-PAGE gels.
Electrophoresis was performed with NuPAGE MES SDS Running Buffer and using the XCell SureLock Mini-Cell Electrophoresis System (Life Technologies). Proteins separated on the gel were transferred to a PVDF membrane using TBST buffer. The blots were blocked in 3% BSA in TBST and subsequently probed overnight with primary antibodies (1:1000 in 1% BSA in TBST) against each target of interest. Following TBST rinses, secondary HRP-conjugated antibodies (1:2000) were applied to the membrane for 60 minutes. The HRP conjugated antibodies were detected using SuperSignal West Femto chemiluminescent substrate (Pierce Biotechnology) and immunoblot images were captured using the luminometer and Lumi Analyst 3.0 software.
(§2) Band densities were determined using ImageJ Gel Analysis to determine expression levels of each protein of interest. Expression levels of HbA1C, PPAR-γ, and NFκB were organized into a bar graphs (FIG. 5) with band densities calculated in comparison to the housekeeping gene β-actin, normalized to the untreated diabetic group (B) of zebrafish. […].

GLUT-4 expression = experiment: Larval diabetic zebrafish assay, Western blot of GLUT-4; type: in vivo; conditions: duplicate Western blot (FIG. 11), diabetic zebrafish larvae, 10 μM
Description: as §1
Wild-type zebrafish were sorted into 24-well microplates with 10 fish per well for a four-phase treatment cycle. At 72 hpf, type 2 diabetes was induced by administering 0.5 mg/mL alloxan in fish water for percutaneous absorption. After three hours of alloxan treatment, phase two of the treatment cycle was initiated by administering 10 μM doses of natural product compounds 41-43 (FIG. 4) or derivatives 45-48 (FIG. 6) with 0.01% DMSO in system water. […] Following centrifugation (60 minutes at 4° C. and 17,000 rpm), protein content of the homogenate supernatant was determined using the Pierce BCA Protein Assay kit (Pierce Biotechnology). Homogenates were analyzed by Western blot with equal amounts of total protein (20 μg) in each sample and using 4×LDS loading buffer (NuPAGE Life Technologies). […]
Electrophoresis was performed with NuPAGE MES SDS Running Buffer and using the XCell SureLock Mini-Cell Electrophoresis System (Life Technologies). […] The HRP conjugated antibodies were detected using SuperSignal West Femto chemiluminescent substrate (Pierce Biotechnology) and immunoblot images were captured using the luminometer and Lumi Analyst 3.0 software.
as §2

## C/C=C/c1cc(OC)c2c(c1)[C@H](C)[C@@H](c1ccc(O)c(OC)c1)O2 [Compound 42, licarin A]
PEPCK expression
  PEPCK expression (band density): retained low PEPCK expression
GLUT-4 expression
  GLUT-4 expression (band density): significantly increased capacities for glucose uptake
